According to patent publication US10287295B2, “TGF-β inhibitors” (Rigel Pharmaceuticals, Inc., priority 2015, dated 2019):

How the values were obtained:
[1] = tested on: GDF8 signaling (GDF pSMAD, MPC11); test: AlphaScreen SureFire SMAD3 (p-Ser423/425) assay, inhibition of GDF8 signaling; type: cell-based; details: Mus musculus, MPC-11, inhibition of GDF8 signaling, p-SMAD3 readout
[2] = tested on: TGF-β signaling (TGF-β pSMAD, MPC-11); test: AlphaScreen SureFire SMAD3 (p-Ser423/425) assay, inhibition of TGF-β signaling; type: cell-based; details: Mus musculus, MPC-11, inhibition of TGF-β signaling, p-SMAD3 readout

SMILES: Cn1cnc(-c2ccc(F)cc2)c1-c1ccc2cn[nH]c2c1 [Compound 49, 6-(4-(4-Fluorophenyl)-1-methyl-1H-imidazol-5-yl)-1H-indazole]
- IC50 [1]: 570 nM
- IC50 [2]: 1210 nM

SMILES: Cn1cnc(-c2ccc(F)cc2)c1-c1ccc2ncn(C)c2c1 [Compound 50, 6-(4-(4-Fluorophenyl)-1-methyl-1H-imidazol-5-yl)-1-methyl-1H-benzo[d]imidazole]
- IC50 [1]: 1020 nM
- IC50 [2]: 1870 nM

SMILES: Cn1cnc(-c2ccc(F)cc2)c1-c1ccc2ncsc2c1 [Compound 51, 6-(4-(4-Fluorophenyl)-1-methyl-1H-imidazol-5-yl)benzo[d]thiazole]
- IC50 [1]: 780 nM
- IC50 [2]: 2710 nM

SMILES: Cc1cc(-c2nc(C)n(C)c2-c2ccc3[nH]ncc3c2)ccc1F [Compound 52, 5-(4-(4-Fluoro-3-methylphenyl)-1,2-dimethyl-1H-imidazol-5-yl)-1H-indazole]
- IC50 [1]: 210 nM
- IC50 [2]: 910 nM

SMILES: Cc1cc(-c2nc(C)n(C)c2-c2ccc3cn[nH]c3c2)ccc1F [Compound 53, 6-(4-(4-Fluoro-3-methylphenyl)-1,2-dimethyl-1H-imidazol-5-yl)-1H-indazole]
- IC50 [1]: 780 nM
- IC50 [2]: 3340 nM

SMILES: Cc1cc(-c2nc(C)n(C)c2-c2ccc3ncn(C)c3c2)ccc1F [Compound 54, 6-(4-(4-Fluoro-3-methylphenyl)-1,2-dimethyl-1H-imidazol-5-yl)-1-methyl-1H-benzo[d]imidazole]
- IC50 [1]: 410 nM
- IC50 [2]: 3100 nM

SMILES: Cc1cc(-c2nc(C)n(C)c2-c2ccc3ncsc3c2)ccc1F [Compound 55, 6-(4-(4-Fluoro-3-methylphenyl)-1,2-dimethyl-1H-imidazol-5-yl)benzo[d]thiazole]
- IC50 [1]: 840 nM
- IC50 [2]: 7760 nM

SMILES: Cc1cccc(-c2nc(C)n(C)c2-c2ccc3[nH]ncc3c2)c1 [Compound 56, 5-(1,2-Dimethyl-4-(m-tolyl)-1H-imidazol-5-yl)-1H-indazole]
- IC50 [1]: 730 nM
- IC50 [2]: 5300 nM

SMILES: Cc1cccc(-c2nc(C)n(C)c2-c2ccc3cn[nH]c3c2)c1 [Compound 57, 6-(1,2-Dimethyl-4-(m-tolyl)-1H-imidazol-5-yl)-1H-indazole]
- IC50 [1]: 710 nM
- IC50 [2]: 9210 nM

SMILES: Cc1cccc(-c2nc(C)n(C)c2-c2ccc3ncn(C)c3c2)c1 [Compound 58, 6-(1,2-Dimethyl-4-(m-tolyl)-1H-imidazol-5-yl)-1-methyl-1H-benzo[d]imidazole]
- IC50 [1]: 990 nM
- IC50 [2]: 9640 nM

SMILES: Cc1cccc(-c2nc(C)n(C)c2-c2ccc3ncsc3c2)c1 [Compound 59, 6-(1,2-Dimethyl-4-(m-tolyl)-1H-imidazol-5-yl)benzo[d]thiazole]
- IC50 [1]: 690 nM
- IC50 [2]: 6750 nM

SMILES: Cn1cnc(-c2cccc(Cl)c2)c1-c1ccc2[nH]ncc2c1 [Compound 60, 5-(4-(3-Chlorophenyl)-1-methyl-1H-imidazol-5-yl)-1H-indazole]
- IC50 [1]: 20 nM
- IC50 [2]: 60 nM

SMILES: Cn1cnc(-c2cccc(Cl)c2)c1-c1ccc2cn[nH]c2c1 [Compound 61, 6-(4-(3-Chlorophenyl)-1-methyl-1H-imidazol-5-yl)-1H-indazole]
- IC50 [1]: 30 nM
- IC50 [2]: 150 nM

SMILES: Cn1cnc(-c2cccc(Cl)c2)c1-c1ccc2ncn(C)c2c1 [Compound 62, 6-(4-(3-Chlorophenyl)-1-methyl-1H-imidazol-5-yl)-1-methyl-1H-benzo[d]imidazole]
- IC50 [1]: 50 nM
- IC50 [2]: 220 nM

SMILES: Cn1cnc(-c2cccc(Cl)c2)c1-c1ccc2ncsc2c1 [Compound 63, 6-(4-(3-Chlorophenyl)-1-methyl-1H-imidazol-5-yl)benzo[d]thiazole]
- IC50 [1]: 60 nM
- IC50 [2]: 230 nM

SMILES: Cn1cnc(-c2ccc(F)c(F)c2)c1-c1ccc2[nH]ncc2c1 [Compound 64, 5-(4-(3,4-Difluorophenyl)-1-methyl-1H-imidazol-5-yl)-1H-indazole]
- IC50 [1]: 90 nM
- IC50 [2]: 270 nM

SMILES: Cn1cnc(-c2ccc(F)c(F)c2)c1-c1ccc2ncn(C)c2c1 [Compound 66, 6-(4-(3,4-Difluorophenyl)-1-methyl-1H-imidazol-5-yl)-1-methyl-1H-benzo[d]imidazole]
- IC50 [1]: 520 nM
- IC50 [2]: 980 nM
